Measured values published in article PMC4004541, “PEG-Like Nanoprobes: Multimodal, Pharmacokinetically and Optically Tunable Nanomaterials” (PLoS ONE, 2014).

Test system: mCherry/HT29 cells
Assay: Confocal microscopy of mCherry/HT29 tumor sections
Assay type: in vivo, nude mice
Conditions: tumor collected 48 h post IV injection
Experimental: With skin removed, an overlay of tumor mCherry (green) and PN(545)10.0 (purple) gave a white superimposition. To determine the cells responsible for the accumulation of PN(783)10.0 seen with surface fluorescence ( Figure 5C ), we employed confocal microscopy of mCherry/HT29 tumor sections ( Figure 5D ).
The mCherry-HT-29 tumor sample was collected at 48 h post IV injection with PN(497)10.0, and then cryosectioned with thickness of 5 µm. The tumor section was fixed with 4% PFA, mounted with 90% glycerol/10% PBS (at pH 8.5 for best fluorescein fluorescence), and stained with DAPI. Confocal imaging was performed on a Zeiss LSM510 laser scanning confocal microscope (Zeiss Axiophot, Carl Zeiss, Jena, Germany). A 405 nm diode Laser, 488 nm argon laser, and 561 nm diode laser were used for the excitation of DAPI, fluorescein, and mCherry, respectively. A primary dichroic HFT 405/488/561 was used in combination with an LP420 emission filter for DAPI, BP505-530 for fluorescein, and LP575 for mCherry. Images were analyzed with ImageJ64.
Confocal imaging: The mCherry-HT-29 tumor sample was collected at 48 h post IV injection with PN(497)10.0, and then cryosectioned with thickness of 5 µm. The tumor section was fixed with 4% PFA, mounted with 90% glycerol/10% PBS (at pH 8.5 for best fluorescein fluorescence), and stained with DAPI. […] Images were analyzed with ImageJ64.

Substance: (DOTA)Lys(PEG 30 kDa)-Cys(Fl) [PN(497)10.0, PEG-like Nanoprobe: 30 kDa PEG, fluorescein, DOTA peptide]
- Cellular localisation in tumor sections: seen in mCherry/HT29 cells
